Laboratory results reported in PMC5218480 (PLoS ONE, 2017).

System: MV-4-11 cells
Test: Gene expression microarray analysis (Affymetrix PrimeView) and GSEA
Assay type: cell-based, human
Design: RFU PODN (11730768_x_at) / Fold change /veh PODN (11730768_x_at) / RFU LINC00158 (11744669_a_at) / Fold change /veh LINC00158 (11744669_a_at) / RFU DUSP10 (11751237_a_at) / Fold change /veh DUSP10 (11751237_a_at) / RFU ID3 (11757404_x_at) / Fold change /veh ID3 (11757404_x_at) / RFU PLEKHG5 (11737974_s_at) / Fold change /veh PLEKHG5 (11737974_s_at) / RFU LRRC4B (11730491_at) / Fold change /veh LRRC4B (11730491_at) / RFU GIMAP4 (11747438_a_at) / Fold change /veh GIMAP4 (11747438_a_at) / RFU KRT8 (11758183_x_at) / Fold change /veh KRT8 (11758183_x_at) / RFU CNN1 (11734310_a_at) / Fold change /veh CNN1 (11734310_a_at) / RFU VPS37D (11726825_at) / Fold change /veh VPS37D (11726825_at) / RFU C10orf10 (11716522_x_at) / Fold change /veh C10orf10 (11716522_x_at) / RFU KIR2DL2 /// KIR2DL4 /// KIR2DL5A /// KIR2DL5B /// KIR2DS1 /// KIR2DS2 /// KIR2DS3 /// KIR2DS4 /// KIR3DL3 /// KIR3DL3 /// KIR3DS1 (11738374_at) / Fold change /veh KIR2DL2 /// KIR2DL4 /// KIR2DL5A /// KIR2DL5B /// KIR2DS1 /// KIR2DS2 /// KIR2DS3 /// KIR2DS4 /// KIR3DL3 /// KIR3DL3 /// KIR3DS1 (11738374_at) / RFU C1QL1 (11718748_at) / Fold change /veh C1QL1 (11718748_at) / RFU TMPRSS4 (11747572_a_at) / Fold change /veh TMPRSS4 (11747572_a_at) / RFU HAMP (11756126_x_at) / Fold change /veh HAMP (11756126_x_at) / RFU RNFT2 (11725882_a_at) / Fold change /veh RNFT2 (11725882_a_at) / RFU NR4A2 (11747474_a_at) / Fold change /veh NR4A2 (11747474_a_at) / RFU ABCC12 (11746883_a_at) / Fold change /veh ABCC12 (11746883_a_at) / RFU TMEM136 (11760407_x_at) / Fold change /veh TMEM136 (11760407_x_at) / RFU CLDN22 /// WWC2 (11732394_at) / Fold change /veh CLDN22 /// WWC2 (11732394_at) / RFU HLA-DPB1 (11760878_x_at) / Fold change /veh HLA-DPB1 (11760878_x_at) / RFU SPINT1 (11716480_a_at) / Fold change /veh SPINT1 (11716480_a_at) / RFU GAP43 (11754022_s_at) / Fold change /veh GAP43 (11754022_s_at) / RFU A4GNT (11735810_at) / Fold change /veh A4GNT (11735810_at) / RFU PRB3 (11715151_x_at) / Fold change /veh PRB3 (11715151_x_at) / RFU TUBB4B (11761932_at) / Fold change /veh TUBB4B (11761932_at) / RFU CAPN14 (11732068_a_at) / Fold change /veh CAPN14 (11732068_a_at) / RFU TMCC2 (11721928_a_at) / Fold change /veh TMCC2 (11721928_a_at) / RFU IRGQ (11745062_a_at) / Fold change /veh IRGQ (11745062_a_at) / RFU FAM174B (11720279_a_at) / Fold change /veh FAM174B (11720279_a_at) / RFU TMPRSS4 (11748680_a_at) / Fold change /veh TMPRSS4 (11748680_a_at) / RFU FAM212B (11763350_a_at) / Fold change /veh FAM212B (11763350_a_at) / RFU PLEKHG5 (11743358_a_at) / Fold change /veh PLEKHG5 (11743358_a_at) / RFU ZSCAN30 (11745921_a_at) / Fold change /veh ZSCAN30 (11745921_a_at) / RFU CMKLR1 (11741424_a_at) / Fold change /veh CMKLR1 (11741424_a_at) / RFU LOC101060620 /// MAPK8IP1 (11723275_at) / Fold change /veh LOC101060620 /// MAPK8IP1 (11723275_at) / RFU SPTSSB (11747773_x_at) / Fold change /veh SPTSSB (11747773_x_at) / RFU PRSS12 (11739890_at) / Fold change /veh PRSS12 (11739890_at) / RFU BIN1 (11741810_x_at) / Fold change /veh BIN1 (11741810_x_at) / RFU WNT11 (11732464_a_at) / Fold change /veh WNT11 (11732464_a_at) / RFU C10orf10 (11716521_a_at) / Fold change /veh C10orf10 (11716521_a_at) / RFU C5orf56 (11738089_at) / Fold change /veh C5orf56 (11738089_at) / RFU CYB561 (11721691_x_at) / Fold change /veh CYB561 (11721691_x_at) / RFU ANKRD19P (11752326_a_at) / Fold change /veh ANKRD19P (11752326_a_at) / RFU OR2T12 /// OR2T33 /// OR2T8 (11738714_s_at) / Fold change /veh OR2T12 /// OR2T33 /// OR2T8 (11738714_s_at) / RFU VCAN (11748164_a_at) / Fold change /veh VCAN (11748164_a_at) / RFU JSRP1 (11732532_at) / Fold change /veh JSRP1 (11732532_at) / RFU KRTAP10-11 (11738290_x_at) / Fold change /veh KRTAP10-11 (11738290_x_at) / RFU MYO3A (11730013_a_at) / Fold change /veh MYO3A (11730013_a_at) / RFU EBF3 (11725865_a_at) / Fold change /veh EBF3 (11725865_a_at) / RFU CAMK2N1 (11719241_x_at) / Fold change /veh CAMK2N1 (11719241_x_at) / RFU C5orf56 (11738088_a_at) / Fold change /veh C5orf56 (11738088_a_at) / RFU OLFML3 (11715873_a_at) / Fold change /veh OLFML3 (11715873_a_at) / RFU LOC100653217 /// NTM (11731650_a_at) / Fold change /veh LOC100653217 /// NTM (11731650_a_at) / RFU MAPK11 (11762145_a_at) / Fold change /veh MAPK11 (11762145_a_at) / RFU FIZ1 (11724087_x_at) / Fold change /veh FIZ1 (11724087_x_at) / RFU OASL (11726364_x_at) / Fold change /veh OASL (11726364_x_at) / RFU SOX15 (11748057_x_at) / Fold change /veh SOX15 (11748057_x_at) / RFU CD79A (11719716_a_at) / Fold change /veh CD79A (11719716_a_at) / RFU HIST1H1D (11736915_at) / Fold change /veh HIST1H1D (11736915_at) / RFU CASKIN2 (11723855_a_at) / Fold change /veh CASKIN2 (11723855_a_at) / RFU LOC730098 (11760151_x_at) / Fold change /veh LOC730098 (11760151_x_at) / RFU OR4N2 (11742367_at) / Fold change /veh OR4N2 (11742367_at) / RFU PRRT2 (11749266_a_at) / Fold change /veh PRRT2 (11749266_a_at) / RFU SNX32 (11753110_a_at) / Fold change /veh SNX32 (11753110_a_at) / RFU CDHR5 (11726645_a_at) / Fold change /veh CDHR5 (11726645_a_at) / RFU RCAN1 (11760418_a_at) / Fold change /veh RCAN1 (11760418_a_at) / RFU FAM167A (11723789_a_at) / Fold change /veh FAM167A (11723789_a_at) / RFU FAM26E (11764081_at) / Fold change /veh FAM26E (11764081_at) / RFU ISYNA1 (11749810_s_at) / Fold change /veh ISYNA1 (11749810_s_at) / RFU ACY1 (11761880_at) / Fold change /veh ACY1 (11761880_at) / RFU 11764098_at / Fold change /veh 11764098_at / RFU SAMD14 (11745864_x_at) / Fold change /veh SAMD14 (11745864_x_at) / RFU NPB (11741838_a_at) / Fold change /veh NPB (11741838_a_at) / RFU TMPRSS6 (11731388_a_at) / Fold change /veh TMPRSS6 (11731388_a_at) / RFU KRTAP10-2 (11738614_at) / Fold change /veh KRTAP10-2 (11738614_at) / RFU ARHGAP8 /// PRR5-ARHGAP8 (11727945_x_at) / Fold change /veh ARHGAP8 /// PRR5-ARHGAP8 (11727945_x_at) / RFU KRTAP5-7 /// NADSYN1 (11734609_at) / Fold change /veh KRTAP5-7 /// NADSYN1 (11734609_at) / RFU RASL12 (11751679_a_at) / Fold change /veh RASL12 (11751679_a_at) / RFU CDKN2B (11736163_a_at) / Fold change /veh CDKN2B (11736163_a_at) / RFU PRF1 (11729649_at) / Fold change /veh PRF1 (11729649_at) / RFU, ZNF638 /// ZNF638-IT1 / Fold change vs veh, ZNF638 /// ZNF638-IT1 / RFU, PANK3 / Fold change vs veh, PANK3 / RFU, SH3YL1 / Fold change vs veh, SH3YL1 / RFU, ZEB2 / Fold change vs veh, ZEB2 / RFU, NRIP1 / Fold change vs veh, NRIP1 / RFU, PTTG1IP / Fold change vs veh, PTTG1IP / RFU, CAPN2 / Fold change vs veh, CAPN2 / RFU, MED14 / Fold change vs veh, MED14 / RFU, SNORA58 / Fold change vs veh, SNORA58 / RFU, C1orf63 / Fold change vs veh, C1orf63 / RFU, LRRFIP1 / Fold change vs veh, LRRFIP1 / RFU, NDUFAF7 / Fold change vs veh, NDUFAF7 / RFU, SLC12A2 / Fold change vs veh, SLC12A2 / RFU, IBTK / Fold change vs veh, IBTK / RFU, ESF1 / Fold change vs veh, ESF1 / Fold change vs veh, TMEM50B / RFU, TAOK1 / Fold change vs veh, TAOK1 / RFU, ACBD3 / Fold change vs veh, ACBD3 / RFU, TMA16 / Fold change vs veh, TMA16 / RFU, RWDD3 / Fold change vs veh, RWDD3 / RFU, BCAT1 / Fold change vs veh, BCAT1 / RFU, EDEM3 / Fold change vs veh, EDEM3 / RFU, TMEM33 / Fold change vs veh, TMEM33 / RFU, WDR75 / Fold change vs veh, WDR75 / RFU, AHCTF1 / Fold change vs veh, AHCTF1 / RFU, TFRC / Fold change vs veh, TFRC / RFU, ZDHHC17 / Fold change vs veh, ZDHHC17 / RFU, NOM1 / Fold change vs veh, NOM1 / RFU, ARL8B / Fold change vs veh, ARL8B / RFU, ZBTB11 / Fold change vs veh, ZBTB11 / RFU, TAMM41 / Fold change vs veh, TAMM41 / RFU, KIAA1704 /// LOC100996395 / Fold change vs veh, KIAA1704 /// LOC100996395 / RFU, ING1 / Fold change vs veh, ING1 / RFU, TRMT61B / Fold change vs veh, TRMT61B / RFU, FUBP3 / Fold change vs veh, FUBP3 / RFU, TP53 / Fold change vs veh, TP53 / RFU, TNKS2 / Fold change vs veh, TNKS2 / RFU, ZFP14 / Fold change vs veh, ZFP14 / RFU, ACTR2 / Fold change vs veh, ACTR2 / RFU, PPP3R1 / Fold change vs veh, PPP3R1 / RFU, PIK3R1 / Fold change vs veh, PIK3R1 / RFU, HNRNPA1 / Fold change vs veh, HNRNPA1 / RFU, RNF170 / Fold change vs veh, RNF170 / RFU, ZNF28 / Fold change vs veh, ZNF28 / RFU, RNGTT / Fold change vs veh, RNGTT / RFU, OGT / Fold change vs veh, OGT / RFU, BRD1 / Fold change vs veh, BRD1 / RFU, MARS / Fold change vs veh, MARS / RFU, ZNF655 / Fold change vs veh, ZNF655 / RFU, FAHD1 / Fold change vs veh, FAHD1 / RFU, BDP1 / Fold change vs veh, BDP1 / RFU, LRRCC1 / Fold change vs veh, LRRCC1 / RFU, ARID1A / Fold change vs veh, ARID1A / RFU, ZNF146 / Fold change vs veh, ZNF146 / RFU, ZNF330 / Fold change vs veh, ZNF330 / RFU, GPN3 / Fold change vs veh, GPN3 / RFU, C9orf123 / Fold change vs veh, C9orf123 / RFU, N4BP2L2 / Fold change vs veh, N4BP2L2 / RFU, ARFIP1 / Fold change vs veh, ARFIP1 / RFU, FAM179B / Fold change vs veh, FAM179B / RFU, BCL10 / Fold change vs veh, BCL10 / RFU, UHRF1BP1L / Fold change vs veh, UHRF1BP1L / RFU, BET1 / Fold change vs veh, BET1 / RFU, CNOT2 / Fold change vs veh, CNOT2 / RFU, ZNF268 / Fold change vs veh, ZNF268 / Fold change vs veh, ZNF507 / RFU, DGCR2 / Fold change vs veh, DGCR2 / RFU, WDSUB1 / Fold change vs veh, WDSUB1 / Fold change vs veh, HSP90B1 /// MIR3652 / RFU, ADSS / Fold change vs veh, ADSS / RFU, GK / Fold change vs veh, GK / RFU, ZNF148 / Fold change vs veh, ZNF148 / RFU, TAF9 / Fold change vs veh, TAF9 / RFU, SLC1A5 / Fold change vs veh, SLC1A5 / RFU, SLMO2 / Fold change vs veh, SLMO2 / RFU, ABCC4 / Fold change vs veh, ABCC4 / RFU, LOC101060439 /// RAP1B / Fold change vs veh, LOC101060439 /// RAP1B / RFU, RFX7 / Fold change vs veh, RFX7 / RFU, GTPBP10 / Fold change vs veh, GTPBP10 / RFU, CNEP1R1 / Fold change vs veh, CNEP1R1 / RFU, BIVM-ERCC5 /// ERCC5 / Fold change vs veh, BIVM-ERCC5 /// ERCC5 / RFU, ILF3 / Fold change vs veh, ILF3 / RFU 11762660_at / Fold change /veh 11762660_at / RFU VCAN (11757783_s_at) / Fold change /veh VCAN (11757783_s_at) / RFU DDX43 (11728927_at) / Fold change /veh DDX43 (11728927_at) / RFU KRT8 (11758188_x_at) / Fold change /veh KRT8 (11758188_x_at) / RFU NKD1 (11759106_at) / Fold change /veh NKD1 (11759106_at) / RFU SRD5A1 (11742802_a_at) / Fold change /veh SRD5A1 (11742802_a_at) / RFU TPSAB1 /// TPSB2 (11721975_s_at) / Fold change /veh TPSAB1 /// TPSB2 (11721975_s_at) / RFU GSTM3 (11746129_a_at) / Fold change /veh GSTM3 (11746129_a_at) / RFU IL23R (11737362_x_at) / Fold change /veh IL23R (11737362_x_at) / RFU TMEM51 (11727254_a_at) / Fold change /veh TMEM51 (11727254_a_at) / RFU PIWIL2 (11732686_x_at) / Fold change /veh PIWIL2 (11732686_x_at) / RFU ORM1 (11744905_x_at) / Fold change /veh ORM1 (11744905_x_at) / RFU CCDC152 (11743942_at) / Fold change /veh CCDC152 (11743942_at) / RFU ECM1 (11717891_a_at) / Fold change /veh ECM1 (11717891_a_at) / RFU IL23R (11748794_a_at) / Fold change /veh IL23R (11748794_a_at) / RFU TNFAIP8L3 (11732012_x_at) / Fold change /veh TNFAIP8L3 (11732012_x_at) / RFU MBOAT4 (11741988_at) / Fold change /veh MBOAT4 (11741988_at) / RFU 11764193_at / Fold change /veh 11764193_at / RFU TMEM53 (11763286_at) / Fold change /veh TMEM53 (11763286_at) / RFU MAGEB2 (11727129_at) / Fold change /veh MAGEB2 (11727129_at) / RFU TMEM200A (11744735_a_at) / Fold change /veh TMEM200A (11744735_a_at) / RFU CCDC152 (11751479_a_at) / Fold change /veh CCDC152 (11751479_a_at) / RFU FAM211A (11726209_a_at) / Fold change /veh FAM211A (11726209_a_at) / RFU RGS16 (11746705_a_at) / Fold change /veh RGS16 (11746705_a_at) / RFU VCAN (11755009_s_at) / Fold change /veh VCAN (11755009_s_at) / RFU RHOB (11743442_s_at) / Fold change /veh RHOB (11743442_s_at) / RFU RGS16 (11720943_a_at) / Fold change /veh RGS16 (11720943_a_at) / RFU RGS16 (11720944_at) / Fold change /veh RGS16 (11720944_at) / RFU, VPS4B / Fold change vs veh, VPS4B / RFU, CREB1 / Fold change vs veh, CREB1 / RFU, DNAJC13 / Fold change vs veh, DNAJC13 / RFU, GNAQ / Fold change vs veh, GNAQ / RFU, CDK5R1 / Fold change vs veh, CDK5R1 / RFU, ZRANB3 / Fold change vs veh, ZRANB3 / RFU, CUL4A / Fold change vs veh, CUL4A / RFU, CCNY / Fold change vs veh, CCNY / RFU, UFL1 / Fold change vs veh, UFL1 / RFU, COG3 / Fold change vs veh, COG3 / RFU, DIAPH2 / Fold change vs veh, DIAPH2 / RFU, SKA2 / Fold change vs veh, SKA2 / RFU, AFF3 / Fold change vs veh, AFF3 / RFU, LMF1 / Fold change vs veh, LMF1 / RFU, IPO11 / Fold change vs veh, IPO11 / RFU, DFFB / Fold change vs veh, DFFB / RFU, FOXP1 / Fold change vs veh, FOXP1 / RFU, CARD8 / Fold change vs veh, CARD8 / RFU, STRN3 / Fold change vs veh, STRN3 / RFU, ADK / Fold change vs veh, ADK / RFU, RASSF2 / Fold change vs veh, RASSF2 / RFU, WIPF1 / Fold change vs veh, WIPF1 / RFU, LARP1B / Fold change vs veh, LARP1B / RFU, RASA1 / Fold change vs veh, RASA1 / RFU, RB1 / Fold change vs veh, RB1 / RFU, PPFIA1 / Fold change vs veh, PPFIA1 / RFU, MAT2A / Fold change vs veh, MAT2A / RFU, CCT5 / Fold change vs veh, CCT5 / RFU, WDR92 / Fold change vs veh, WDR92 / RFU, CUX1 / Fold change vs veh, CUX1 / RFU, TTC7A / Fold change vs veh, TTC7A / RFU, TMEM135 / Fold change vs veh, TMEM135 / RFU, DEPTOR / Fold change vs veh, DEPTOR / RFU, CPM / Fold change vs veh, CPM / RFU, DNAJB6 / Fold change vs veh, DNAJB6 / RFU, CACNA2D3 / Fold change vs veh, CACNA2D3 / RFU, DTX4 / Fold change vs veh, DTX4 / RFU, TFCP2 / Fold change vs veh, TFCP2 / RFU, GMCL1 /// GMCL1P1 / Fold change vs veh, GMCL1 /// GMCL1P1 / RFU, AEBP2 / Fold change vs veh, AEBP2 / RFU, SNHG1 /// SNORD22 /// SNORD25 /// SNORD26 /// SNORD27 /// SNORD28 /// SNORD29 /// SNORD31 / Fold change vs veh, SNHG1 /// SNORD22 /// SNORD25 /// SNORD26 /// SNORD27 /// SNORD28 /// SNORD29 /// SNORD31 / Fold change (Aza/veh), C12orf56 (ProbeSet 11735607_a_at) / Fold change (ACY-1035/veh), C12orf56 (ProbeSet 11735607_a_at) / Fold change (Aza/veh), FGFR1OP (ProbeSet 11751329_s_at) / Fold change (ACY-1035/veh), FGFR1OP (ProbeSet 11751329_s_at) / Fold change (Aza/veh), VPS36 (ProbeSet 11739960_a_at) / Fold change (ACY-1035/veh), VPS36 (ProbeSet 11739960_a_at) / RFU SYPL1 (11715823_x_at) / Fold change /veh SYPL1 (11715823_x_at) / RFU IGFBP7 (11715501_s_at) / Fold change /veh IGFBP7 (11715501_s_at) / RFU REEP3 (11722064_at) / Fold change /veh REEP3 (11722064_at) / RFU IGLL1 (11728026_x_at) / Fold change /veh IGLL1 (11728026_x_at): dose or concentration left out as unconfirmed
Details: MV-4-11 cells, 48 hours

With `Nc1ncn([C@@H]2O[C@H](CO)[C@@H](O)[C@H]2O)c(=O)n1` [azacitidine] the “RFU 11764193_at” value was 40.50 RFU.
